# Assay results: patent US5294617A, “Angiotensin II receptor blocking 2,3,6 substituted quinazolinones” (American Cyanamid Company, priority 1993, dated 1994)
# Values joined by “and” are separate entries in the source; they are usually repeats but may differ in a detail not shown here. Equal entries are not always repeated.
# Test system: ANGIOTENSIN II (AII) VASOPRESSOR RESPONSE
# Experiment: AII Challenge: angiotensin II vasopressor response in conscious spontaneously hypertensive rats
# Format: in vivo, Conscious Male Okamoto-Aoki SHR (rat)
# Conditions: 10 mg/kg i.v.; for % Inhibition / Average Change: SHR n=2; for Response After AII / Response Change / Control Before AII: individual rat, SHR
# Text: By administering a compound of this invention to a rat, and then challenging with angiotensin II, a blockage of the vasopressor response is realized.
# Conscious Male Okamoto-Aoki SHR, 16-20 weeks old, weighing approximately 330 g are purchased from Charles River Labs (Wilmington, Mass.). Conscious rats are restrained in a supine position with elastic tape. The area at the base of the tail is locally anesthetized by subcutaneous infiltration with 2% procaine. The ventral caudal artery and vein are isolated, and a cannula made of polyethylene (PE) 10-20 tubing (fused together by heat) is passed into the lower abdominal aorta and vena cava, respectively. The cannula is secured, heparinized (1,000 I.U./ml), sealed and the wound is closed. The animals are placed in plastic restraining cages in an upright position. The cannula is attached to a Statham P23Db pressure transducer, and pulsatile blood pressure is recorded to 10-15 minutes with a Gould Brush recorder. (Chan et al., (Drug Development Res., 18:75-94, 1989).
# Angiotensin II (human sequence, Sigma Chem. Co., St. Louis, Mo.) of 0.05 and 0.1 ug/kg i.v. is injected into all rats (predosing response). Then a test compound, vehicle or a known angiotensin II antagonist is administered i.v., i.p. or orally to each set of rats. The two doses of angiotensin II are given to each rat again at 30, 60, 90, 120, 180, 240 and 300 minutes post dosing the compound or vehicle. The vasopressor response of angiotensin II is measured for the increase in systolic blood pressure in mmHg. The percentage of antagonism or blockade of the vasopressor response of angiotensin II by a compound is calculated using the vasopressor response (increase in systolic blood pressure) of angiotensin II of each rat predosing the compound as 100%. A compound is considered active if at 30 mg/kg i.v. it antagonized at least 50% of the response.
# [1] = AII 0.05 mcg/kg IV, 30 min post dose
# [2] = AII 0.05 mcg/kg IV, 60 min post dose
# [3] = AII 0.05 mcg/kg IV, 90 min post dose
# [4] = AII 0.05 mcg/kg IV, 120 min post dose
# [5] = AII 0.05 mcg/kg IV, 180 min post dose
# [6] = AII 0.05 mcg/kg IV, 240 min post dose
# [7] = AII 0.05 mcg/kg IV, 300 min post dose
# [8] = AII 0.1 mcg/kg IV, 30 min post dose
# [9] = AII 0.1 mcg/kg IV, 60 min post dose
# [10] = AII 0.1 mcg/kg IV, 90 min post dose
# [11] = AII 0.1 mcg/kg IV, 120 min post dose
# [12] = AII 0.1 mcg/kg IV, 180 min post dose
# [13] = AII 0.1 mcg/kg IV, 240 min post dose
# [14] = AII 0.1 mcg/kg IV, 300 min post dose
# [15] = AII 0.05 mcg/kg IV, 30 min post dose, 10 mg/kg
# [16] = AII 0.05 mcg/kg IV, 60 min post dose, 10 mg/kg
# [17] = AII 0.05 mcg/kg IV, 90 min post dose, 10 mg/kg
# [18] = AII 0.05 mcg/kg IV, 180 min post dose, 10 mg/kg
# [19] = AII 0.05 mcg/kg IV, 240 min post dose, 10 mg/kg
# [20] = AII 0.05 mcg/kg IV, 300 min post dose, 10 mg/kg
# [21] = AII 0.1 mcg/kg IV, 30 min post dose, 10 mg/kg
# [22] = AII 0.1 mcg/kg IV, 60 min post dose, 10 mg/kg
# [23] = AII 0.1 mcg/kg IV, 90 min post dose, 10 mg/kg
# [24] = AII 0.1 mcg/kg IV, 120 min post dose, 10 mg/kg
# [25] = AII 0.1 mcg/kg IV, 180 min post dose, 10 mg/kg
# [26] = AII 0.1 mcg/kg IV, 240 min post dose, 10 mg/kg
# [27] = AII 0.1 mcg/kg IV, 300 min post dose, 10 mg/kg
smiles,measurement,setting,value
"CCCCc1nc2ccc([C@H]3C[C@H](CO)ON3C)cc2c(=O)n1Cc1ccc(-c2ccccc2-c2nnn[nH]2)cc1 (relative stereo) [Example 16, TRANS-2-butyl-6-[5-(hydroxymethyl)-2-methyl-3-isoxazolidinyl]-3-[[2'-(1H-tetrazol-5-yl)[1,1'-biphenyl]-4-yl]methyl]-4(3H)-quinazolinone]",% Inhibition,[1],85%
same,Average Change,[1],8 mmHg
same,% Inhibition,[2],76%
same,Average Change,[2],12.5 mmHg
same,% Inhibition,[3],62%
same,Average Change,[3],20 mmHg
same,% Inhibition,[4],67%
same,Average Change,[4],17.5 mmHg
same,% Inhibition,[5],50%
same,Average Change,[5],26.5 mmHg
same,% Inhibition,[6],50%
same,Average Change,[6],26.5 mmHg
same,% Inhibition,[7],19%
same,Average Change,[7],42.5 mmHg
same,% Inhibition,[8],81%
same,Average Change,[8],10 mmHg
same,% Inhibition,[9],79%
same,Average Change,[9],11.5 mmHg
same,% Inhibition,[10],77%
same,Average Change,[10],12.5 mmHg
same,% Inhibition,[11],68%
same,Average Change,[11],17.5 mmHg
same,% Inhibition,[12],54%
same,Average Change,[12],25 mmHg
same,% Inhibition,[13],54%
same,Average Change,[13],25 mmHg
same,% Inhibition,[14],26%
same,Average Change,[14],40 mmHg
same,Response After AII,[15],198 mmHg and 190 mmHg
same,Response Change,[15],3 mmHg and 13 mmHg
same,Response After AII,[16],200 mmHg and 180 mmHg
same,Response Change,[16],5 mmHg and 20 mmHg
same,Response After AII,[3],190 mmHg
same,Response After AII,[17],215 mmHg
same,Response Change,[17],10 mmHg and 30 mmHg
same,Response After AII,[4],210 mmHg
same,Response Change,"AII 0.05 mcg/kg IV, 120 min post dose, 10 mg/kg",15 mmHg and 20 mmHg
same,Response After AII,[5],218 mmHg
same,Response After AII,[18],195 mmHg
same,Response Change,[18],23 mmHg and 30 mmHg
same,Response After AII,[6],218 mmHg
same,Response After AII,[19],195 mmHg
same,Response Change,[19],23 mmHg and 30 mmHg
same,Response After AII,[7],230 mmHg
same,Response After AII,[20],225 mmHg
same,Response Change,[20],35 mmHg and 50 mmHg
same,Response After AII,[21],205 mmHg and 175 mmHg
same,Response Change,[21],15 mmHg and 5 mmHg
same,Response After AII,[22],210 mmHg and 173 mmHg
same,Response Change,[22],15 mmHg and 8 mmHg
same,Response After AII,[10],210 mmHg
same,Response After AII,[23],185 mmHg
same,Response Change,[23],10 mmHg and 15 mmHg
same,Response After AII,[24],220 mmHg and 200 mmHg
same,Response Change,[24],20 mmHg and 15 mmHg
same,Response After AII,[25],215 mmHg and 205 mmHg
same,Response Change,[25],15 mmHg and 35 mmHg
same,Response After AII,[26],215 mmHg and 205 mmHg
same,Response Change,[26],15 mmHg and 35 mmHg
same,Response After AII,[27],250 mmHg and 230 mmHg
same,Response Change,[27],30 mmHg and 50 mmHg
same,Control Before AII,"before AII 0.05 mcg/kg IV, 30 min post dose, 10 mg/kg",195 mmHg and 177 mmHg
same,Control Before AII,"before AII 0.05 mcg/kg IV, 60 min post dose, 10 mg/kg",195 mmHg and 160 mmHg
same,Control Before AII,"before AII 0.05 mcg/kg IV, 90 min post dose, 10 mg/kg",205 mmHg and 160 mmHg
same,Control Before AII,"before AII 0.05 mcg/kg IV, 120 min post dose, 10 mg/kg",195 mmHg and 190 mmHg
same,Control Before AII,"before AII 0.05 mcg/kg IV, 180 min post dose, 10 mg/kg",195 mmHg and 165 mmHg
same,Control Before AII,"before AII 0.05 mcg/kg IV, 240 min post dose, 10 mg/kg",195 mmHg and 165 mmHg
same,Control Before AII,"before AII 0.05 mcg/kg IV, 300 min post dose, 10 mg/kg",195 mmHg and 175 mmHg
same,Control Before AII,"before AII 0.1 mcg/kg IV, 30 min post dose, 10 mg/kg",190 mmHg and 170 mmHg
same,Control Before AII,"before AII 0.1 mcg/kg IV, 60 min post dose, 10 mg/kg",195 mmHg and 165 mmHg
same,Control Before AII,"before AII 0.1 mcg/kg IV, 90 min post dose, 10 mg/kg",200 mmHg and 170 mmHg
same,Control Before AII,"before AII 0.1 mcg/kg IV, 120 min post dose, 10 mg/kg",200 mmHg and 185 mmHg
same,Control Before AII,"before AII 0.1 mcg/kg IV, 180 min post dose, 10 mg/kg",200 mmHg and 170 mmHg
same,Control Before AII,"before AII 0.1 mcg/kg IV, 240 min post dose, 10 mg/kg",200 mmHg and 170 mmHg
same,Control Before AII,"before AII 0.1 mcg/kg IV, 300 min post dose, 10 mg/kg",220 mmHg and 180 mmHg
